Data set [1] deals with T1, CYP2C19 (Homo sapiens, UniProt P33261).
T1 construct: tissue Corning Inc. or XenoTech, LLC. or other suppliers; host or cells: mixed human liver microsomes
Briefly: Inhibition on human liver microsome CYP2C19. It is filed as in vitro ADME. The conditions noted are these: human liver microsomes; for IC50: 5-in-1 probe substrate. Here is the method: (§1) The research project aimed at evaluating inhibitory ability of a sample for test on human liver microsome cytochrome P450 isozymes (CYP1A2, CYP2C9, CYP2C19, CYP2D6, and CYP3A4) with use of a 5-in-1 probe substrate for CYP isozymes.
(§2) Mixed human liver microsomes (HLM) were purchased from Corning Inc. (Steuben, N.Y., USA) or XenoTech, LLC. (Lenexa, Kans., USA) or other suppliers, and stored in a condition below −70° C. before use.
(§3) Diluted working solutions of the sample for test in serial concentrations were added to an incubation system containing the human liver microsomes, probe substrate, and accessory factors of a cycling system, and a control containing no sample for test but a solvent was taken as a control for enzymatic activity (100%). Concentration of metabolites generated by the probe substrate in the sample was measured with a method of liquid chromatography-tandem mass spectrometry (LC-MS/MS). Nonlinear regression analysis of mean percentage activity vs concentration of the sample for test was carried out using SigmaPlot (V.11). An IC^50 value was calculated through a three-parameter or four-parameter inflection logarithmic equation.
On the technique in general: Liver microsomes are a subcellular fraction often used to study metabolism.

The nature of data set [2]: Liver microsome stability, mouse. The format is in vitro ADME, CD-1 mice. The conditions noted are these: mouse liver microsomes; for CLint scaled: CD-1, read-out: Intrinsic clearance; for Remaining % (60 min): 37° C. Here is the method:
(§4) The purpose of research in the present experiment is assessing phase I metabolic stability of the sample for test in CD-1 mice, SD rats, and human liver microsomes.
(§5) The animals and human liver microsomes used in this test system were purchased from BD Gentest, Xenotech, Corning or BioreclamationIVT, and stored in a refrigerator at −80° C. before use.
(§6) The sample for test and control were incubated together with the microsomes under a condition of 37° C. for 60 minutes, and a cold acetonitrile solution (or other organic solvents) containing an internal standard substance was added at a designated time point to terminate the reaction. After centrifugation, a resultant supernatant was assayed in a semiquantitative manner through liquid chromatography tandem mass spectrometry (LC/MS/MS). Software Analyst (AB Sciex, Framingham, Mass., USA) was used for processing retention time of analyte and internal standard, and achieving chromatogram collection, and chromatogram integration
(§7) An in vitro elimination rate constant ke of the sample was obtained by converting a ratio of the sample to a peak area of the internal standard to remaining percentage, to calculate an in vitro elimination rate and half-life of the sample for test.

In data set [3] the target is T2, CYP1A2 (Homo sapiens, UniProt P05177).
T2 construct: tissue Corning Inc. or XenoTech, LLC. or other suppliers; host or cells: mixed human liver microsomes
T2 sequence (P05177 1-516): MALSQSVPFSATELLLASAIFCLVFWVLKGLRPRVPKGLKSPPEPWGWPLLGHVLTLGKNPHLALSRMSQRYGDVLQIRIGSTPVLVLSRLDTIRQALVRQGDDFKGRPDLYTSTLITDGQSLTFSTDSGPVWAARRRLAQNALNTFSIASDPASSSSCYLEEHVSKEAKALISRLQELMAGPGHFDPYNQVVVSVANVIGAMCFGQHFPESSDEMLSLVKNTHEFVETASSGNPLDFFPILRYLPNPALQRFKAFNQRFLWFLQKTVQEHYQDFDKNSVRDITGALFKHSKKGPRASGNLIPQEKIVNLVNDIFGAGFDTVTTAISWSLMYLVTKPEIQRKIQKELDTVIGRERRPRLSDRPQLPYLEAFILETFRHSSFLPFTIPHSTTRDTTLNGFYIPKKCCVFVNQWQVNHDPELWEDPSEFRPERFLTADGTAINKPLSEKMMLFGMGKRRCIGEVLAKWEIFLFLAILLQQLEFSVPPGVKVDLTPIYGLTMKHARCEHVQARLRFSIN
The data set can be described thus: Inhibition on human liver microsome CYP1A2. The conditions noted are these: human liver microsomes; for IC50: 5-in-1 probe substrate. The format is in vitro ADME. Here is the method: as §1, §2, §3

A short description of data set [4]: Liver microsome stability, human. It is filed as in vitro ADME. The following applies: human liver microsomes; for Remaining % (60 min): 37° C.; for CLint scaled: read-out: Intrinsic clearance. Here is the method: as §4, §5, §6, §7
The nature of data set [5]: Pharmacokinetics experiment of mice in vivo, single intravenous injection. Further details: species or system male CD-1 mice. The conditions noted are these: Mouse PK, IV 1 mg/kg; for AUC(0-inf) / AUC(0-t) / Vd / clearance / half-life: male, CD-1, plasma. Here is the method:
The present experiment aimed at researching status of pharmacokinetics of a sample for test in plasma of male CD-1 mice after single intravenous injection.
Three animals in an intravenous group were intravenously injected with the sample for test by 1 mg/kg, and a formulation was 0.2 mg/mL settled solution of 5% DMSO/95% (10% HP-β-CD). 5 minutes, 15 minutes, 30 minutes, 1 hour, 2 hours, 4 hours, 6 hours, 8 hours, and 24 hours after the administration, blood was collected and prepared into a plasma specimen, with an anticoagulant of EDTA-K2. Plasma concentration data was obtained by analyzing the specimen through LC-MS/MS.
The plasma drug concentration data was processed with a non-compartment model using WinNonlin™ Version 6.3 (Pharsight, Mountain View, Calif.) pharmacokinetics software. Following pharmacokinetics parameters were calculated using a log-linear trapezoidal method: elimination phase half-life (T1/2), apparent volume of distribution (Vdss), and clearance rate (CL), mean retention time of drug in body from point 0 to end time point (MRT0-last), mean retention time of drug in body from point 0 to infinite time (MRT0-inf), area under a time-plasma concentration curve from point 0 to end time point (AUC0-last), area under a time-plasma concentration curve from point 0 to infinite time (AUC0-inf), and initial concentration (C0).

Data set [6] has as its target T3, CYP2D6 (Homo sapiens, UniProt P10635).
T3 construct: tissue Corning Inc. or XenoTech, LLC. or other suppliers; host or cells: mixed human liver microsomes
Briefly: Inhibition on human liver microsome CYP2D6. The format is in vitro ADME. The conditions noted are these: human liver microsomes; for IC50: 5-in-1 probe substrate. Here is the method:
as §1, §2, §3

The target of data set [7] is T4, CYP3A4 (Homo sapiens, UniProt P08684).
T4 construct: tissue Corning Inc. or XenoTech, LLC. or other suppliers; host or cells: mixed human liver microsomes
T4 sequence (P08684 whole entry): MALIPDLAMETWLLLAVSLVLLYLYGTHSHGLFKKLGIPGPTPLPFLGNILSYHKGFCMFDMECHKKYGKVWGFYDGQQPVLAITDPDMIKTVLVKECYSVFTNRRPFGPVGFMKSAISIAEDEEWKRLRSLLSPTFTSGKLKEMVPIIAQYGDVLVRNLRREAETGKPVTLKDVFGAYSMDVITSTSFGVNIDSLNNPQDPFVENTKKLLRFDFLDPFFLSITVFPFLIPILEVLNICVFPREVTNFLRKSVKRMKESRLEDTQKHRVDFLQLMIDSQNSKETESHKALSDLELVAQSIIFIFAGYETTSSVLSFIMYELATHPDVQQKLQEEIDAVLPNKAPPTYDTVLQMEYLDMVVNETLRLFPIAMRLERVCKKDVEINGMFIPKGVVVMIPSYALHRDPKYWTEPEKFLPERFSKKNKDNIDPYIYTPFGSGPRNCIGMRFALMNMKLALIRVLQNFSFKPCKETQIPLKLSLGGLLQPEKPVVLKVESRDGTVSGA
The data set can be described thus: Inhibition on human liver microsome CYP3A4. It is filed as in vitro ADME. The following applies: human liver microsomes; for IC50: 5-in-1 probe substrate. Here is the method:
as §1, §2, §3

The test system of data set [8] is mice colon cancer CT26. The following applies: according to document reports; cited from earlier work.

T1 sequence (P33261 whole entry): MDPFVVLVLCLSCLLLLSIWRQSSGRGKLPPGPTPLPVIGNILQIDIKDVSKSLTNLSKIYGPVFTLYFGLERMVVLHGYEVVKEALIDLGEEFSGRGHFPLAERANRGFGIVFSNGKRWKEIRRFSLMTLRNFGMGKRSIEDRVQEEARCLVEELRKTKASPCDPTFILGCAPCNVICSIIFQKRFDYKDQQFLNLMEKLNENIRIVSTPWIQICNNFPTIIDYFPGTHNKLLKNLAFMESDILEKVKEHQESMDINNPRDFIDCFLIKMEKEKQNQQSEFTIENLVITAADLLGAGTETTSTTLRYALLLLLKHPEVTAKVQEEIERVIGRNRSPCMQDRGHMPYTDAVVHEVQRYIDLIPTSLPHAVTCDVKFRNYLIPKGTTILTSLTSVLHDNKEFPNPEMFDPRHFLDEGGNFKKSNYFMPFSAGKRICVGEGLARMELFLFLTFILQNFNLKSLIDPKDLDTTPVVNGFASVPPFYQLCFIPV
T3 sequence (P10635 whole entry): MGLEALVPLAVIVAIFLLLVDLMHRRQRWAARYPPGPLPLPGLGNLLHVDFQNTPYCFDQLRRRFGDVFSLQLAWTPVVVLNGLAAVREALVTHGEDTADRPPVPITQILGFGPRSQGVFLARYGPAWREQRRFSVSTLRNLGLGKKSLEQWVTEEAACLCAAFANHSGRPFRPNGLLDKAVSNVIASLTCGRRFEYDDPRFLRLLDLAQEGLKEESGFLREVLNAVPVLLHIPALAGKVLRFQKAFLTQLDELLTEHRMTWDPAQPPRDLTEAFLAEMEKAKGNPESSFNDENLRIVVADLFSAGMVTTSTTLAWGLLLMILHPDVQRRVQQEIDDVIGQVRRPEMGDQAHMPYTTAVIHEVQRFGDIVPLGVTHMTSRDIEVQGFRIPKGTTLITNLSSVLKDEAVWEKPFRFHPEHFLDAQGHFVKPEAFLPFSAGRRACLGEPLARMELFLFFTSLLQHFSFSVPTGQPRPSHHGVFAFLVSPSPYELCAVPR

Usually IC50 stands for the concentration needed to halve the response being measured. Read a low IC50 as inhibition by little substance. A word on the AUC(0-inf): it is total exposure, with the tail of the curve extrapolated. Low readings indicate low exposure, high ones high exposure. As a reminder, the AUC(0-t) is exposure summed from dosing to a finite time, without extrapolation to infinity. As a reminder, the Vd is the apparent volume that relates the amount in the body to the concentration in plasma or blood. Read a low Vd as little distribution into tissue. The term clearance denotes a measure of how efficiently the substance is removed, as volume per time. Read a high clearance as a high capacity for elimination. The term half-life denotes the time in which the quantity being followed falls by half. Low values mean fast loss, high ones slow loss. Regarding `CC(=O)NCCSc1nonc1/C(=N/O)Nc1ccc(F)c(Br)c1` [Compound 0227], in data set [1], the “inhibiting effect on CYP2C19 in words” value is “intermediate degree” and the half-maximal inhibitory concentration (IC50) turned out to be 3.61 µM. Moreover, in data set [2], the CLint scaled came to 275 mL/min/kg, the “metabolic stability in words” value was “metabolized quickly” and the “Remaining % (60 min)” value is listed as 11.0%. In data set [3], this compound returned an IC50 of 13 µM. In data set [4], the “metabolic stability in words” value was “metabolized in a moderate manner”, the “Remaining % (60 min)” value is 56.9% and the CLint scaled was determined as 15.3 mL/min/kg. In addition, in data set [5], the AUC(0-inf) came out at 0.628 µM·h, the AUC(0-t) was found to be 0.624 µM·h, the Vd came to 2.66 L/kg and the clearance came to 64.2 mL/min/kg. The compound also had a half-life in data set [5] of 0.867 h. In data set [6], this compound had a half-maximal inhibitory concentration (IC50) of 26.1 µM. The compound further gave an IC50 in data set [7] of 39.2 µM.

As to `NC(=O)NCCSc1nonc1/C(=N/O)Nc1ccc(F)c(Br)c1` [Compound 0231], in data set [1], the “inhibiting effect on CYP2C19 in words” value is “relatively weak effect” and half-maximal inhibition (IC50) required 36.4 µM. In data set [2], the CLint scaled worked out at 134 mL/min/kg, the “metabolic stability in words” value is “metabolized quickly” and the “Remaining % (60 min)” value was 35.8%. For the same compound, in data set [3], the “inhibiting effect on CYP1A2 in words” value is “relatively weak effect” and the half-maximal inhibitory concentration (IC50) is greater than 50 µM. In data set [4], the “metabolic stability in words” value was “metabolized in a relatively steady manner”, the “Remaining % (60 min)” value came to 81.6% and the CLint scaled is less than 8.6 mL/min/kg. Further, the “Conc. (8 h)” value in data set [5] (plasma, 8 h) is on record as 8.16/ND nM. Further, in data set [5], the AUC(0-inf) came out at 0.881 µM·h, the AUC(0-t) stood at 0.852 µM·h, the Vd came out at 4.85 L/kg and the clearance turned out to be 55.1 mL/min/kg. In addition, the half-life in data set [5] is 2.44 h. In data set [6], the “inhibiting effect on CYP2D6 in words” value is “relatively weak effect” and the IC50 was greater than 50 µM. Also, in data set [7], the “inhibiting effect on CYP3A4 in words” value was “relatively weak effect” and the IC50 was greater than 50 µM.

On to `NS(=O)(=O)NCCNc1nonc1C(=NO)Nc1ccc(F)c(Br)c1` [Compound 360, INCB024360, reference compound], for which the “growth of tumors in mice colon cancer CT26 model” value in data set [8] is reported as “effectively inhibit growth of tumors”.

The record behind these values is patent publication US20190169140A1, “IDO1 INHIBITOR AND PREPARATION METHOD AND APPLICATION THEREOF” (SHANDONG LUYE PHARMACEUTICAL CO., LTD., priority 2016, published 2019).
